Measured values as given in patent US12492173B2, “Herbicidal substituted N-tetrazolyl aryl carboxamides” (Bayer Aktiengesellschaft, priority 2019, dated 2025).

These compounds were tested on Pharbitis purpurea (assay: Pre-emergence herbicidal action, PHBPU). Conditions: dosage 320 g/ha.
Assay type: in vivo
Procedure, shortened: (§1)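 Visual scoring after 3 weeks in the greenhouse, relative to untreated pots, gave percent activity, where 100% means dead plants and 0% equals controls. Treatment was a pre-emergence soil-surface spray of WP or EC formulations in water (600 to 800 l/ha, 0.2% wetting agent) over seeds covered in sandy loam.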

Compound | herbicidal action PHBPU [%]
CCS(=O)(=O)Cc1c(C(F)(F)F)ccc(C(=O)Nc2nnnn2C)c1C [Example 1-88] | 90

Same assay, conditions: dosage 320 g/ha, scored visually after 3 weeks vs untreated controls (100% = plants have died)

Compound | herbicidal activity PHBPU [%]
CCn1nnnc1NC(=O)c1ccc(C(F)(F)F)c(C[S+]([O-])CC)c1Cl (stereo not shown) [Example 2-300] | 100
CCCn1nnnc1NC(=O)c1ccc(C(F)(F)F)c(CS(C)(=O)=O)c1Cl [Example 3-298] | 90
CCn1nnnc1NC(=O)c1ccc(C(F)(F)F)c(C[S+]([O-])CC)c1Br (stereo not shown) [Example 2-384] | 90
COCCSCc1c(C(F)(F)F)ccc(C(=O)Nc2nnnn2C)c1Cl [Example 1-305] | 90
CCn1nnnc1NC(=O)c1ccc(C(F)F)c(C[S+](C)[O-])c1SC (stereo not shown) [Example 2-171] | 90
CCCn1nnnc1NC(=O)c1ccc(C(F)F)c(CS(C)(=O)=O)c1SC [Example 3-172] | 80
CCCn1nnnc1NC(=O)c1ccc(C(F)F)c(CS(=O)(=O)CC)c1Cl [Example 3-325] | 100
CSCc1c(I)ccc(C(=O)Nc2nnnn2C)c1Cl [Example 1-362] | 80

These compounds were tested on Polygonum convolvulus (assay: Pre-emergence herbicidal action, POLCO). Conditions: dosage 320 g/ha, scored visually after 3 weeks vs untreated controls (100% = plants have died).
Assay type: in vivo
Procedure, shortened: as §1

Compound | herbicidal activity POLCO [%]
CCn1nnnc1NC(=O)c1ccc(C(F)(F)F)c(C[S+]([O-])CC)c1Cl (stereo not shown) [Example 2-300] | 100
CCCn1nnnc1NC(=O)c1ccc(C(F)(F)F)c(CS(C)(=O)=O)c1Cl [Example 3-298] | 80
CCn1nnnc1NC(=O)c1ccc(C(F)(F)F)c(C[S+]([O-])CC)c1Br (stereo not shown) [Example 2-384] | 90
CCn1nnnc1NC(=O)c1ccc(C(F)F)c(C[S+](C)[O-])c1SC (stereo not shown) [Example 2-171] | 90
CCCn1nnnc1NC(=O)c1ccc(C(F)F)c(CS(C)(=O)=O)c1SC [Example 3-172] | 100
CCCn1nnnc1NC(=O)c1ccc(C(F)F)c(CS(=O)(=O)CC)c1Cl [Example 3-325] | 100

The compounds below were run on Polygonum convolvulus (assay: Post-emergence herbicidal action, POLCO). Conditions: Dosage 80 g/ha.
Assay type: in vivo
Procedure, shortened: (§2)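 Sandy loam, greenhouse; one-leaf stage (2–3 wk after sowing); foliar spray of WP or EC, 600–800 l/ha water + 0.2% wetter; visual rating at ~3 wk vs untreated, % effect.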

Compound | herbicidal action POLCO
CCCn1nnnc1NC(=O)c1ccc(C(F)(F)F)c(CS(C)(=O)=O)c1Cl [Example 3-298] | 90
CCn1nnnc1NC(=O)c1ccc(C(F)F)c(C[S+](C)[O-])c1SC (stereo not shown) [Example 2-171] | 90
CCCn1nnnc1NC(=O)c1ccc(C(F)F)c(CS(C)(=O)=O)c1SC [Example 3-172] | 80
CCS(=O)(=O)Cc1c(C(F)(F)F)ccc(C(=O)Nc2nnnn2C)c1C [Example 1-88] | 90

Same assay, conditions: post-emergence, dosage 80 g/ha

Compound | herbicidal action POLCO [%]
CCn1nnnc1NC(=O)c1ccc(C(F)(F)F)c(C[S+]([O-])CC)c1Cl (stereo not shown) [Example 2-300] | 100
CCn1nnnc1NC(=O)c1ccc(C(F)(F)F)c(C[S+]([O-])CC)c1Br (stereo not shown) [Example 2-384] | 80
COCCSCc1c(C(F)(F)F)ccc(C(=O)Nc2nnnn2C)c1Cl [Example 1-305] | 100
CSCc1c(I)ccc(C(=O)Nc2nnnn2C)c1Cl [Example 1-362] | 90

Each compound was assayed on Matricaria inodora (assay: Post-emergence herbicidal action, MATIN). Conditions: Dosage 80 g/ha.
Assay type: in vivo
Parameters: key: % herbicidal action vs untreated; 100 = plants died, 0 = like control
Procedure, shortened: as §2

Compound | herbicidal action MATIN
CCCn1nnnc1NC(=O)c1ccc(C(F)(F)F)c(CS(C)(=O)=O)c1Cl [Example 3-298] | 100
CCn1nnnc1NC(=O)c1ccc(C(F)F)c(C[S+](C)[O-])c1SC (stereo not shown) [Example 2-171] | 100
CCCn1nnnc1NC(=O)c1ccc(C(F)F)c(CS(C)(=O)=O)c1SC [Example 3-172] | 90
CCS(=O)(=O)Cc1c(C(F)(F)F)ccc(C(=O)Nc2nnnn2C)c1C [Example 1-88] | 90

Same assay, conditions: post-emergence, dosage 80 g/ha

Compound | herbicidal action MATIN [%]
CCn1nnnc1NC(=O)c1ccc(C(F)(F)F)c(C[S+]([O-])CC)c1Cl (stereo not shown) [Example 2-300] | 90
CCn1nnnc1NC(=O)c1ccc(C(F)(F)F)c(C[S+]([O-])CC)c1Br (stereo not shown) [Example 2-384] | 100
COCCSCc1c(C(F)(F)F)ccc(C(=O)Nc2nnnn2C)c1Cl [Example 1-305] | 100
CSCc1c(I)ccc(C(=O)Nc2nnnn2C)c1Cl [Example 1-362] | 100

Each compound was assayed on Stellaria media (assay: Post-emergence herbicidal action, STEME). Conditions: Dosage 80 g/ha.
Assay type: in vivo
Parameters: key: % herbicidal action vs untreated; 100 = plants died, 0 = like control
Procedure, shortened: as §2

Compound | herbicidal action STEME
CCCn1nnnc1NC(=O)c1ccc(C(F)(F)F)c(CS(C)(=O)=O)c1Cl [Example 3-298] | 100
CCn1nnnc1NC(=O)c1ccc(C(F)F)c(C[S+](C)[O-])c1SC (stereo not shown) [Example 2-171] | 100
CCCn1nnnc1NC(=O)c1ccc(C(F)F)c(CS(C)(=O)=O)c1SC [Example 3-172] | 100
CCS(=O)(=O)Cc1c(C(F)(F)F)ccc(C(=O)Nc2nnnn2C)c1C [Example 1-88] | 100
CCCn1nnnc1NC(=O)c1ccc(C(F)F)c(CS(=O)(=O)CC)c1Cl [Example 3-325] | 100

Same assay, conditions: comparative experiment, post-emergence, 5 g of a.i./ha

Compound | Herbicidal action against STEME
CSCc1c(I)ccc(C(=O)Nc2nnnn2C)c1Cl [Example 1-362] | 90

Same assay, conditions: post-emergence, dosage 80 g/ha

Compound | herbicidal action STEME [%]
CCn1nnnc1NC(=O)c1ccc(C(F)(F)F)c(C[S+]([O-])CC)c1Cl (stereo not shown) [Example 2-300] | 100
CCn1nnnc1NC(=O)c1ccc(C(F)(F)F)c(C[S+]([O-])CC)c1Br (stereo not shown) [Example 2-384] | 100
COCCSCc1c(C(F)(F)F)ccc(C(=O)Nc2nnnn2C)c1Cl [Example 1-305] | 100
CSCc1c(I)ccc(C(=O)Nc2nnnn2C)c1Cl [Example 1-362] | 100

The compounds below were run on Avena fatua (assay: Post-emergence herbicidal action, AVEFA). Conditions: Dosage 80 g/ha.
Assay type: in vivo
Parameters: key: % herbicidal action vs untreated; 100 = plants died, 0 = like control
Procedure, shortened: as §2

Compound | herbicidal action AVEFA
CCCn1nnnc1NC(=O)c1ccc(C(F)(F)F)c(CS(C)(=O)=O)c1Cl [Example 3-298] | 100
CCS(=O)(=O)Cc1c(C(F)(F)F)ccc(C(=O)Nc2nnnn2C)c1C [Example 1-88] | 80
CCCn1nnnc1NC(=O)c1ccc(C(F)F)c(CS(=O)(=O)CC)c1Cl [Example 3-325] | 100

Same assay, conditions: post-emergence, dosage 80 g/ha

Compound | herbicidal action AVEFA [%]
CCn1nnnc1NC(=O)c1ccc(C(F)(F)F)c(C[S+]([O-])CC)c1Cl (stereo not shown) [Example 2-300] | 100
CCn1nnnc1NC(=O)c1ccc(C(F)(F)F)c(C[S+]([O-])CC)c1Br (stereo not shown) [Example 2-384] | 90
COCCSCc1c(C(F)(F)F)ccc(C(=O)Nc2nnnn2C)c1Cl [Example 1-305] | 100
CSCc1c(I)ccc(C(=O)Nc2nnnn2C)c1Cl [Example 1-362] | 100

Each compound was assayed on Amaranthus retroflexus (assay: Pre-emergence herbicidal action, AMARE). Conditions: comparative experiment, 20 g of a.i./ha.
Assay type: in vivo
Parameters: key to Herbicidal action against AMARE: % activity: 100 = plants have died, 0 = like control plants
Procedure, shortened: as §1

Compound | Herbicidal action against AMARE
CSCc1c(I)ccc(C(=O)Nc2nnnn2C)c1Cl [Example 1-362] | 90

Same assay, conditions: dosage 320 g/ha

Compound | herbicidal action AMARE [%]
CCS(=O)(=O)Cc1c(C(F)(F)F)ccc(C(=O)Nc2nnnn2C)c1C [Example 1-88] | 100

Same assay, conditions: dosage 320 g/ha, scored visually after 3 weeks vs untreated controls (100% = plants have died)

Compound | herbicidal activity AMARE [%]
CCn1nnnc1NC(=O)c1ccc(C(F)(F)F)c(C[S+]([O-])CC)c1Cl (stereo not shown) [Example 2-300] | 100
CCCn1nnnc1NC(=O)c1ccc(C(F)(F)F)c(CS(C)(=O)=O)c1Cl [Example 3-298] | 100
CCn1nnnc1NC(=O)c1ccc(C(F)(F)F)c(C[S+]([O-])CC)c1Br (stereo not shown) [Example 2-384] | 100
COCCSCc1c(C(F)(F)F)ccc(C(=O)Nc2nnnn2C)c1Cl [Example 1-305] | 100
CCn1nnnc1NC(=O)c1ccc(C(F)F)c(C[S+](C)[O-])c1SC (stereo not shown) [Example 2-171] | 100
CCCn1nnnc1NC(=O)c1ccc(C(F)F)c(CS(C)(=O)=O)c1SC [Example 3-172] | 100
CCCn1nnnc1NC(=O)c1ccc(C(F)F)c(CS(=O)(=O)CC)c1Cl [Example 3-325] | 100
CSCc1c(I)ccc(C(=O)Nc2nnnn2C)c1Cl [Example 1-362] | 100
